According to ChEMBL document CHEMBL1201862, “PubChem BioAssay data set” (2004):
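How tested: cells in 96-well plates exposed to compound for 48 hours at five concentrations. GI50 is the concentration that inhibits growth by half.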 The source made the active and inactive calls. Cut-off read from the data, not from the text of the source: active = GI50 up to about 1.1 µM and inactive = higher.

Key:
Assay in all cases: NCI-60 cell line screen, 48 h
A498 = system: A498
A549 = system: A549
BT-549 = system: BT-549
CAKI-1 = system: CAKI-1
DU-145 = system: DU-145
HCC 2998 = system: HCC 2998
HOP-62 = system: HOP-62
IGROV-1 = system: IGROV-1
MCF7 = system: MCF7
Malme-3M = system: Malme-3M
NCI-H226 = system: NCI-H226
NCI-H23 = system: NCI-H23
NCI/ADR-RES = system: NCI/ADR-RES
PC-3 = system: PC-3
RPMI-8226 = system: RPMI-8226
SF-268 = system: SF-268
SK-MEL-5 = system: SK-MEL-5
SK-OV-3 = system: SK-OV-3
UACC-257 = system: UACC-257
Hs-578T = system: Hs-578T

Measured: GI50

Fc1cccc(F)c1C1SCc2nc3cc4ccccc4cc3n21 (stereo not given)
inactive: A498 21.2 µM | A549 33.3 µM | BT-549 8.71 µM | CAKI-1 88.1 µM | DU-145 80.4 µM | HCC 2998 23.9 µM | HOP-62 95.9 µM | IGROV-1 21.7 µM | MCF7 47.2 µM | Malme-3M 39.2 µM | NCI-H226 23.3 µM | NCI-H23 52.7 µM | NCI/ADR-RES > 100 µM | PC-3 23 µM | RPMI-8226 6.92 µM | SF-268 52.2 µM | SK-MEL-5 21.8 µM | SK-OV-3 91 µM | UACC-257 31.6 µM

CN(C)C(=S)N1C(=S)N(c2ccccc2)C(=N/c2ccccc2)/C1=N\c1ccccc1
inactive: A498 > 100 µM | A549 > 100 µM | CAKI-1 > 100 µM | DU-145 > 100 µM | HCC 2998 > 100 µM | HOP-62 > 100 µM | Hs-578T > 100 µM | IGROV-1 > 100 µM | Malme-3M > 100 µM | NCI-H226 > 100 µM | NCI-H23 > 100 µM | NCI/ADR-RES > 100 µM | PC-3 > 100 µM | RPMI-8226 > 100 µM | SF-268 > 100 µM | SK-MEL-5 > 100 µM | SK-OV-3 > 100 µM | UACC-257 > 100 µM

CCCCCCCCCCCCCCCCOCC(COP(=O)([O-])OCC[n+]1ccc(N(C)C)cc1)OCC (stereo not given)
inactive: A549 16.2 µM | BT-549 7.74 µM | DU-145 16.5 µM | HCC 2998 13.7 µM | HOP-62 12.3 µM | Hs-578T 17.9 µM | IGROV-1 16.9 µM | MCF7 19.2 µM | Malme-3M 18.5 µM | NCI-H226 17.2 µM | NCI-H23 18.6 µM | RPMI-8226 4.12 µM | SF-268 10.8 µM | SK-MEL-5 17.8 µM

O=C(CCC1CCCCC1)NCc1ccc(C(=O)O)cc1
inactive: A498 > 100 µM | A549 > 100 µM | BT-549 > 100 µM | CAKI-1 > 100 µM | DU-145 > 100 µM | HCC 2998 > 100 µM | HOP-62 > 100 µM | IGROV-1 > 100 µM | MCF7 > 100 µM | Malme-3M > 100 µM | NCI-H226 > 100 µM | NCI-H23 > 100 µM | NCI/ADR-RES > 100 µM | PC-3 > 100 µM | RPMI-8226 > 100 µM | SF-268 > 100 µM | SK-MEL-5 > 100 µM | SK-OV-3 > 100 µM | UACC-257 > 100 µM

C=CCOC(=O)N1c2ccc(O)cc2[C@@]23O[C@@]24[C@@H]1C#C/C=C\C#C[C@]3(O)C(OC)(OC)C[C@@H]4C
inactive: A498 25.5 µM | A549 50.5 µM | CAKI-1 53.6 µM | DU-145 46.6 µM | HCC 2998 63.1 µM | HOP-62 34.6 µM | Hs-578T 37.8 µM | IGROV-1 25.8 µM | MCF7 35 µM | Malme-3M 26.8 µM | NCI-H226 24.9 µM | NCI-H23 24.4 µM | NCI/ADR-RES 32.3 µM | PC-3 24 µM | RPMI-8226 34.4 µM | SF-268 36.5 µM | SK-MEL-5 13.8 µM | SK-OV-3 61 µM | UACC-257 19.1 µM

O=C(O)Cc1cc(O)c(CC(=O)O)cc1O
inactive: A498 > 100 µM | A549 > 100 µM | BT-549 > 100 µM | CAKI-1 > 100 µM | DU-145 > 100 µM | HCC 2998 > 100 µM | HOP-62 > 100 µM | Hs-578T > 100 µM | IGROV-1 > 100 µM | Malme-3M > 100 µM | NCI-H226 > 100 µM | NCI-H23 > 100 µM | NCI/ADR-RES > 100 µM | PC-3 > 100 µM | SF-268 > 100 µM | SK-MEL-5 > 100 µM | UACC-257 > 100 µM

COc1ccc(/C=C2\CN(C)CC3C2=NN(c2ccccc2)C3c2ccc(OC)cc2)cc1 (stereo not given)
inactive: A498 33.8 µM | A549 > 100 µM | BT-549 > 100 µM | CAKI-1 60 µM | DU-145 > 100 µM | HCC 2998 > 100 µM | HOP-62 38 µM | Hs-578T 42.8 µM | IGROV-1 > 100 µM | MCF7 > 100 µM | Malme-3M 41.7 µM | NCI-H226 > 100 µM | NCI-H23 > 100 µM | NCI/ADR-RES > 100 µM | RPMI-8226 > 100 µM | SF-268 > 100 µM | SK-MEL-5 > 100 µM | SK-OV-3 16.6 µM | UACC-257 > 100 µM
